Patent US20260297060A1, “COMPOUNDS FOR THE DEGRADATION OF MUTANT BRAF” (C4 THERAPEUTICS, INC., priority 2023, published 2026)

Legend:
[1] = Example 7 pharmacokinetics assay for efficacy study (plasma, liver); type: in vivo, BALB/c nude mice; details: mouse, po, 10 mg/kg, p.o.
Description: For efficacy study, agents were tested in the A375 human melanoma xenografts. Compound 118, Compound 156, and Compound 180 were administered to BALB/c nude mice bearing A375 xenografts from day 0 and dosed p.o. twice per day (BID). Compound 141 was administered from day 0 and dosed p.o. twice per day (BID) or dosed p.o. daily (QD) from day 1. Compound 141, Compound 118, Compound 156, and Compound 180 were dosed at 10 mg/kg for 14 days. The known BRAF inhibitor Dabrafenib was used as a positive control. Dabrafenib was administered from day 1 and dosed p.o. daily (QD) for 14 days and dosed at 100 mg/kg.
(§1) The plasma samples were collected at predetermined time points for PK analysis. The mice were euthanized at predetermined time points post the treatment. The blood samples were collected into the 1.5 mL Eppendorf tubes containing 15 μL of 0.5 M EDTA-K2. And then the anticoagulant blood samples were centrifuged at 2,500 g at 4° C. for 15 minutes. The plasma samples were separated into 2 aliquots. The 1st was used for PK analysis, and the 2nd served as backup. The samples were stored at −80° C. before bioanalysis.
(§2) Liver samples were collected at predetermined time points for PK analysis. The left lobe of the liver was dissected out and split into 2 parts. The 1st part was used for PK analysis and the 2nd part served as the backup for the study. The samples were transferred into pre-labeled tubes and quickly froze in liquid nitrogen within 2 minutes after dissection. The samples were stored at −80° C. before bioanalysis.
The harvested plasma and liver samples were processed for pharmacokinetics analysis by LC-MS/MS with a concentration range of 0.500~500 ng/mL for Dabrafenib in plasma and liver homogenate, 20.0~20,000 ng/mL for Compound 141, Compound 180 and Compound 118 in plasma and liver, 10.0~10,000 ng/mL for Compound 156 in plasma and liver.

[2] = tested on: A375 tumors; assay: In vivo efficacy, A375 xenograft tumor volume (Example 7); set-up: species or system human A375 melanoma xenograft in female BALB/c nude mice; details: oral, FIG. 14; for tumor regressions in the xenograft model: 10 mg/kg BID, A375 xenografts; for antitumor response compared with comparators dabrafenib or encorafenib: A375 human melanoma xenografts
Description: FIG. 14 is a line graph showing in vivo efficacy of dabrafenib, Compound 141, Compound 118, Compound 156, and Compound 180 in the treatment of female BALB/c nude mice bearing A375 tumors. Mice were treated with vehicle (10 μL/g, p.o., BID), dabrafenib (100 mg/kg, p.o., QD), Compound 141 (10 mg/kg, p.o., QD), Compound 141 (10 mg/kg, p.o., BID), Compound 118 (10 mg/kg, p.o., BID), Compound 156 (10 mg/kg, p.o., BID), or Compound 180 (10 mg/kg, p.o., BID) by oral gavage (p.o.). Data points represent group mean change in tumor volume. Error bars represent standard error of the mean (SEM). The x-axis is the time measured in days and the y-axis is A375 tumor volume measured in mm^3. The experiment was conducted as described in Example 7.

[3] = Example 8 pharmacokinetics assay for efficacy study (plasma, liver); type: in vivo, BALB/c nude mice; details: mouse, po, 10 mg/kg, p.o.
Description: For efficacy study, agents were tested in the A375 human melanoma xenografts model. Compound 8, Compound 26, and Compound 38 were administered to BALB/c nude mice bearing A375 xenografts from day 0 and dosed p.o. twice per day (BID). Compound 8 and Compound 26 were dosed at 10 mg/kg for 21 days. Compound 38 was dosed at 10 mg/kg for 10 days. The known BRAF inhibitor encorafenib was used as a positive control. encorafenib was administered from day 1 and dosed p.o. daily (QD) for 21 days and dosed at 35 mg/kg.
as §1, with “analysis. For non-termination plasma collection, blood samples were collected into the 1.5 mL Eppendorf tubes containing 3 μL of 0.5 M EDTA-K2. For termination plasma collection, the” for “analysis. The”, “the treatment and the” for “the treatment. The”
as §2
The harvested plasma and liver samples were processed for pharmacokinetics analysis by LC-MS/MS with a concentration range of 2.0~2000 ng/mL for encorafenib in plasma and liver homogenate, 10.0-10,000 ng/mL for Compound 8 and Compound 38 in plasma and liver homogenate, 20.0~20,000 ng/mL for Compound 26 in plasma and liver homogenate.

[4] = liver, BID × 14 days, read-out: Concentration in Liver (mean ± SEM)
[5] = plasma, BID × 14 days, read-out: Concentration in Plasma (mean ± SEM)
[6] = liver, BID × 21 days, read-out: Concentration in Liver (mean ± SEM)
[7] = plasma, BID × 21 days, read-out: Concentration in Plasma (mean ± SEM)

| SMILES | concentration at 6 h [1, 4] [ng/g] | concentration at 6 h [1, 5] [ng/mL] | tumor regressions in the xenograft model [2] | antitumor response compared with comparators dabrafenib or encorafenib [2] | other results |
| --- | --- | --- | --- | --- | --- |
| CCN(C)S(=O)(=O)Nc1ccc(F)c(Oc2ccc3ncc(C4CC5(CCN(C6CCC(c7cc8c(cc7F)c(N7CCC(=O)NC7=O)nn8C)CC6)CC5)C4)nc3c2)c1C#N (single isomer, unassigned) [Compound 180, 7-[2-cyano-3-[[ethyl(methyl)sulfamoyl]amino]-6-fluoro-phenoxy]-2-[7-[4-[3-(2,4-dioxohexahydropyrimidin-1-yl)-5-fluoro-1-methyl-indazol-6-yl]cyclohexyl]-7-azaspiro[3.5]nonan-2-yl]quinoxaline] | 2400 ± 425 | 1920 ± 363 | profound tumor regressions | more robust antitumor response | – |
| CCN(C)S(=O)(=O)Nc1ccc(F)c(Oc2ccc3ncc(OCC4CCN(C5CCC(c6cc7c(cc6F)c(N6CCC(=O)NC6=O)nn7C)CC5)CC4)nc3c2)c1C#N (single isomer, unassigned) [Compound 118, 7-[2-cyano-3-[[ethyl(methyl)sulfamoyl]amino]-6-fluoro-phenoxy]-2-[[1-[4-[3-(2,4-dioxohexahydropyrimidin-1-yl)-5-fluoro-1-methyl-indazol-6-yl]cyclohexyl]-4-piperidyl]methoxy]quinoxaline] | 102000 ± 1600 | 4160 ± 503 | profound tumor regressions | more robust antitumor response | – |
| CCN(C)S(=O)(=O)Nc1ccc(F)c(Oc2ccc3ncn([C@H]4COC5(CCC(N6CCC(c7cc8c(cc7F)c(N7CCC(=O)NC7=O)nn8C)C(F)(F)C6)CC5)C4)c(=O)c3c2)c1C#N (single isomer, unassigned) [Compound 38] | – | – | – | – | concentration at 6 h ([3]; liver, BID × 10 days, read-out: Concentration in Liver (mean ± SEM)): 17200 ± 2570 ng/g; concentration at 6 h ([3]; plasma, BID × 10 days, read-out: Concentration in Plasma (mean ± SEM)): 18300 ± 2240 ng/mL |
| CCN(C)S(=O)(=O)Nc1ccc(F)c(Oc2ccc3ncn([C@H]4COC5(CCN(C6CC7(C6)CN(c6cc8c(cc6F)c(N6CCC(=O)NC6=O)nn8C)C7)CC5)C4)c(=O)c3c2)c1C#N [Compound 26, (3R)-3-[6-[2-cyano-3-[[ethyl(methyl)sulfamoyl]amino]-6-fluoro-phenoxy]-4-oxo-quinazolin-3-yl]-8-[2-[3-(2,4-dioxohexahydropyrimidin-1-yl)-5-fluoro-1-methyl-indazol-6-yl]-2-azaspiro[3.3]heptan-6-yl]-1-oxa-8-azaspiro[4.5]decane] | – | – | – | – | concentration at 6 h [3, 6]: 4720 ± 367 ng/g; concentration at 6 h [3, 7]: 16000 ± 2060 ng/mL |
| CCN(C)S(=O)(=O)Nc1ccc(F)c(Oc2ccc3ncn(C4CC5(CCN(C6CC7(C6)CN(c6cc8c(cc6F)c(N6CCC(=O)NC6=O)nn8C)C7)CC5)C4)c(=O)c3c2)c1C#N (stereo not drawn) [Compound 141, 6-[2-cyano-3-[[ethyl(methyl)sulfamoyl]amino]-6-fluoro-phenoxy]-3-[7-[2-[3-(2,4-dioxohexahydropyrimidin-1-yl)-5-fluoro-1-methyl-indazol-6-yl]-2-azaspiro[3.3]heptan-6-yl]-7-azaspiro[3.5]nonan-2-yl]-4-oxo-quinazoline] | 6570 ± 341 | 8750 ± 907 | profound tumor regressions | more robust antitumor response | concentration at 6 h ([1]; liver, QD × 14 days, read-out: Concentration in Liver (mean ± SEM)): 7500 ± 286 ng/g; concentration at 6 h ([1]; plasma, QD × 14 days, read-out: Concentration in Plasma (mean ± SEM)): 11000 ± 474 ng/mL |
| CCN(C)S(=O)(=O)Nc1ccc(F)c(Oc2ccc3ncn(C4CC5(CCN(C6CCN(c7cc8c(cc7F)c(N7CCC(=O)NC7=O)nn8C)CC6)CC5)C4)c(=O)c3c2)c1C#N [Compound 156, 6-[2-cyano-3-[[ethyl(methyl)sulfamoyl]amino]-6-fluoro-phenoxy]-3-[7-[1-[3-(2,4-dioxohexahydropyrimidin-1-yl)-5-fluoro-1-methyl-indazol-6-yl]-4-piperidyl]-7-azaspiro[3.5]nonan-2-yl]-4-oxo-quinazoline] | 1840 ± 305 | 1870 ± 359 | profound tumor regressions | more robust antitumor response | – |
| CCN(C)S(=O)(=O)Nc1ccc(F)c(Oc2ccc3ncn(C4CC5(CCN(C6CCC(c7cc8c(cc7F)c(N7CCC(=O)NC7=O)nn8C)CC6)CC5)C4)c(=O)c3c2)c1C#N (single isomer, unassigned) [Compound 8, 6-[2-cyano-3-[[ethyl(methyl)sulfamoyl]amino]-6-fluoro-phenoxy]-3-[7-[4-[3-(2,4-dioxohexahydropyrimidin-1-yl)-5-fluoro-1-methyl-indazol-6-yl]cyclohexyl]-7-azaspiro[3.5]nonan-2-yl]-4-oxo-quinazoline] | – | – | – | – | concentration at 6 h [3, 6]: 738 ± 299 ng/g; concentration at 6 h [3, 7]: 984 ± 364 ng/mL |
